# Bridges are numbered along the chain shown (N, C = ends). Where no end group is shown, it is not given here.
# Tests used:
# tumor cells [1] = test: Histology of lung tissue after fatpad implantation or intravenous injection of tumor cells; format: in vivo, mice; conditions: four weeks after fatpad implantation or two weeks after intravenous injection of tumor cells, versus TAT
# Source text: FIGS. 8A-8B are computer-generated photomicrographs of lung tissue from mice four weeks following fatpad implantation of tumor cells. Osmotic pumps were implanted 1 week after fatpad implantation, for delivering TAT (control; FIG. 8A) or αV5-3-TAT peptide (PKC a inhibitor; FIG. 8B).
# FIGS. 8C-8D are computer-generated photomicrographs of lung tissue from mice two weeks after intravenous injection of tumor cells. Osmotic pumps were implanted two days prior to […], for delivering TAT (control; FIG. 8C) or αV5-3-TAT peptide (PKC a inhibitor; FIG. 8D).
# FIGS. 8A-8D are computer-generated photomicrographs of lung tissue from mice four weeks following fatpad implantation of tumor cells (FIGS. 8A-8B) or two weeks after intravenous injection of tumor cells (FIGS. 8C-8D).
# [2] = tested on: MDA-MB-231 breast cancer cells; test: Cell migration/invasion assay through a HUVEC monolayer, MDA-MB-231; format: cell-based, human; conditions: peptide 10 μM, re-applied every 2 hours for 10 hours
# Source text: (§1) FIGS. 14A and 14B are bar graphs showing the efficacy of TAT carrier peptide (TAT), αV5-3-TAT peptide (Alpha), βIIV5-3 peptide (Beta-2), and εV1-2 (Epsilon) in inhibiting the invasion of human MDA-MB-231 and MCF-7 breast cancer cells through a HUVEC monolayer. FIGS. 14C and 14D are bar graphs showing the efficacy of TAT carrier peptide (TAT) or αV5-3-TAT peptide in inhibiting the invasion of 4T1 (FIG. 11C) and MDA-MB-231 (FIG. 11D) cells.
# as §1, with “14B show the results of a related experiment measuring” for “14B are bar graphs showing”, “εV1-2 peptide” for “εV1-2”, “14D show the results of a similar experiment” for “14D are bar graphs”
# Cell Migration/invasion assay: Primary human endothelial cells (HUVEC's) were plated on top of a matrigel plug in trans-well plates. Once the cells had reached confluence (as determined by examination of a control well), 1×10^6 human breast cancer cells (MCF-7 or MDA-MB-231) expressing luciferase were added above the HUVEC cell layer. Where applicable, peptides were added to a final concentration of 10 μM and re-applied every 2 hours for 10 hours followed by further incubation. After 24-48 hours-incubation the HUVEC cell layer (and all other cells above the matrigel) were removed by scraping of the cell layer into the media and aspiration (repeated 3 times). The relative numbers of cancer cells that had crossed the HUVEC cell layer and entered the matrigel was then determined by bioluminescence detection of luciferase action following addition of luciferin substrate.
# tumor cells [3] = test: Adhesion of intravenously injected tumor cells to the lungs (imaging); format: in vivo, mice; conditions: for adhesion of tumor cells in the lung, imaging: versus TAT
# Experimental: FIG. 7A is a bar graph showing the affect of αV5-3-TAT peptide on the adhesion of tumor cells into the lungs. Animals were treated with TAT carrier peptide (TAT), or αV5-3-TAT peptide (PKC alpha inhibitor), initiated two days before, and continued for 12 days following, injection of tumor cells intravenously;
# FIGS. 7B-7C are images of mice two days after treatment as described in FIG. 7A. The mice in FIG. 7B were treated with TAT and the mice in FIG. 7C treated with αV5-3-TAT peptide.
# FIGS. 7D-7E are images of mice following five days of treatment as described in FIG. 7A. The mice in FIG. 7D were treated TAT (control) and the mice in FIG. 7E were treated with αV5-3-TAT peptide (PKC a inhibitor).
# For example, FIG. 7A is a bar graph showing the affect of αV5-3-TAT peptide on the adhesion of tumor cells into the lungs. In this experiment, animals were treated with TAT carrier peptide (TAT), or αV5-3-TAT peptide (PKC alpha inhibitor), for two days before injection of tumor cells intravenously. Adhesion of tumor cells to the lung was reduced in animals treated with the PKC alpha inhibitor compared to control animals.
# FIGS. 7B and 7C are images of representative mice two days after treatment. The mice in FIG. 7B were treated with TAT and the mice in FIG. 7C treated with αV5-3-TAT peptide. […] FIGS. 7D-7E are images of mice following five days of treatment. The mice in FIG. 7D were treated TAT (control) and the mice in FIG. 7E were treated with αV5-3-TAT peptide (PKC a inhibitor).
# [4] = tested on: 4T1 murine mammary cancer cells; test: Lung metastasis of luciferase-tagged 4T1 tumors in mice, imaging (relative light units); format: in vivo; conditions: 4T1-luciferase tumor-bearing mice, osmotic pump, about 35 mg/kg/day, four weeks
# Experimental: To determine whether specific PKC inhibitors could reduce the amount of PKC translocation/activation in vivo and thereby reduce tumor cell metastasis, animals were administered an αPKC peptide inhibitor, or appropriate control, via an implanted osmotic pump, following the injection of luciferase-tagged tumor cells. […] The data are summarized in the bar graph shown in FIG. 4, along with similar data relating to the use of a βIIV5-3-TAT conjugate peptide (βPKC; SEQ ID NO: 27). The extent of lung metastasis is expressed as relative light units.
# Balb/c female mice (6 weeks old) were injected semi-orthotopically with 4T1 murine mammary cancer cells tagged with luciferase ([…] cells/100 μL). One week later, an osmotic minipump was implanted subcutaneously in each animal, for delivery of saline (control), TAT peptide (control, YGRKKRRQRRR, SEQ ID NO: 25), the peptide inhibitor αV5-3 (QLVIAN, SEQ ID NO: 6) attached via an N-terminal disulfide bond to TAT peptide (YGRKKRRQRRR-CC-QLVIAN, SEQ ID NO: 26).
# In other experiments, the peptide inhibitor βIIV5-3 (QEVIAN, SEQ ID NO: 13) or εV1-2 (EAVSLKPT, SEQ ID NO: 20) is attached via an N-terminal disulfide bond to the TAT peptide (SEQ ID NOs: 27 and 28, respectively). The TAT control, αV5-3-TAT, βIIV5-3-TAT, or εV1-2-TAT conjugate peptides are administered at about 35 mg/kg/day for two and four weeks.
# After two weeks of treatment with αV5-3-TAT, some animals were selected form imaging (IVIS® 29, Xenogen Corporation, Alameda, Calif.) and analysis, with the remaining animals imaged after four weeks of treatment.
# FIG. 4 is a bar graph showing the extent of lung metastasis, expressed as relative light units (based on imaging as exemplified in FIG. 3), in tumor-bearing mice treated for four weeks with saline, the αV5-3-TAT conjugate peptide (αPKC), or the βIIV5-3-TAT conjugate peptide (βPKC). The extent of lung metastasis, quantified approximately by the relative light units, for mice treated with saline, the αPKC inhibitor, and the βIIV5-3 PKC inhibitor peptide is shown. The extent of lung metastases is reduced in the animals treated with the αPKC inhibitor.
substance,measurement,setting,value
YGRKKRRQRRR-CC-QLVIAN (YGRKKRRQRRRCCQLVIAN; disulfide 12-13 (inferred)) [αV5-3-TAT],invasion of lung tissues by tumor cells (histology),tumor cells [1],reduced
same,invasion of MDA-MB-231 cells through a HUVEC monolayer,[2],reduced
same,"adhesion of tumor cells in the lung, imaging","tumor cells [3]; five days of treatment, FIGS. 7D-7E",reduced adhesion
same,adhesion of tumor cells to the lung,"tumor cells [3]; treatment from two days before intravenous injection of tumor cells, FIG. 7A, versus TAT control",reduced
same,"adhesion of tumor cells in the lung, imaging","tumor cells [3]; two days after treatment, FIGS. 7B-7C",reduced adhesion
same,effect on lung metastasis compared to control animals (in words),[4],reduced
same,reduction of lung metastasis compared to control animals,[4],4 to 5 fold

# Reference: patent publication US20090137493A1, “Inhibition of tumor metastases using protein kinase C (PKC) inhibitors” (priority 2007, published 2009)
